According to US20250066346A1, “SOLID FORMS OF A BENZTHIAZOLE-PIPERAZINYL-OXAZOLE COMPOUND AND METHODS OF USE THEREOF” (Hepagene Therapeutics (HK) Limited, priority 2022, published 2025):
Converted amounts (≈) assume the structure as drawn.

How the values were obtained:
Format in all cases: physicochemical
[1] = Kinetic solubility in water and bio-relevant media (SGF, FaSSIF, FeSSIF) at 37° C.; parameters: key to FC: form change: Yes: form changed; No: form not changed; details: for pH: filtered supernatant
Protocol: Agilent 1260 HPLC was utilized and detailed chromatographic conditions are provided in Tables 3 and 4 for purity and solubility test, respectively.
About 20 mg of free base (form A) HCl salt (form B), and HBr salt (form D) were added to a 5-mL glass vials followed by the addition of 4 mL of the corresponding medium/solvent into each glass vial to form a suspension. The vials were capped and rolled at 37° C. (25 rpm). Samples were removed (1 mL) at 1 h, 4 h, and 24 h and centrifuged (14000 rpm, 2 min, room temperature). The supernatant was filtered through 0.22 μm syringe filter (first few drops of filtrate were discarded) for HPLC solubility and pH tests (Table 15). The residual solids were analyzed by XRPD.

[2] = Hygroscopicity by dynamic vapor sorption (DVS) at 25° C.
Protocol: DVS was measured via a SMS (Surface Measurement Systems) DVS Intrinsic. The relative humidity at 25° C. was calibrated against deliquescence point of LiCl, Mg(NO3)2 and KCl.

[3] = Solid state stability (XRPD for physical stability, HPLC purity for chemical stability); details: for Purity/initial purity: HPLC; for Form change: XRPD
Source text: All the samples were characterized by XRPD for physical stability and HPLC purity for chemical stability evaluation (Table 16).

[4] = Approximate solubility of Form A in solvents at room temperature (stepwise solvent addition, visual); details: organic solvent or mixture, thermodynamic from solid
Protocol: Approximately 2 mg of Form A of Compound I was added into a 3-mL glass vial. At room temperature, the solvents in Table 8 were then added stepwise into the vials until the solids were dissolved visually or a total volume of 2 mL was reached.

## COc1cc(C(=O)O)cc2sc(N3CCN(Cc4c(-c5c(Cl)cccc5Cl)noc4C4CC4)C[C@H]3C)nc12 [Form A, (R)-2-(4-((5-cyclopropyl-3-(2,6-dichlorophenyl)isoxazol-4-yl)methyl)-2-methylpiperazin-1-yl)-4-methoxybenzo[d]thiazole-6-carboxylic acid]
[1]; FaSSIF, 1 hr
  FC: form change: No
  S: solubility: 16 µg/mL
  pH: 6.4
[1]; FaSSIF, 4 hrs
  FC: form change: No
  S: solubility: 17 µg/mL
  pH: 6.5
[1]; FaSSIF, 24 hrs
  FC: form change: No
  S: solubility: 22 µg/mL
  pH: 6.4
[1]; FeSSIF, 1 hr
  FC: form change: No
  S: solubility: 51 µg/mL
  pH: 5.0
[1]; FeSSIF, 4 hrs
  FC: form change: No
  S: solubility: 56 µg/mL
  pH: 5.1
[1]; FeSSIF, 24 hrs
  FC: form change: No
  S: solubility: 56 µg/mL
  pH: 5.1
[1]; H2O, 1 hr
  FC: form change: No
  S: solubility: 3 µg/mL
  pH: 6.2
[1]; H2O, 4 hrs
  FC: form change: No
  S: solubility: 2.3 µg/mL
  pH: 6.3
[1]; H2O, 24 hrs
  FC: form change: No
  S: solubility: 4.6 µg/mL
  pH: 6.4
[1]; SGF, 1 hr
  FC: form change: No
  S: solubility: 20 µg/mL
  pH: 2.1
[1]; SGF, 4 hrs
  FC: form change: No
  S: solubility: 18 µg/mL
  pH: 1.8
[1]; SGF, 24 hrs
  FC: form change: No
  S: solubility: 17 µg/mL
  pH: 2.0
[1]; water, 37 °C, thermodynamic from solid, text summary of Table 15
  solubility: < 7 µg/mL
[2]; DVS
  hygroscopicity (in words): non-hygroscopic
[2]; at 80% RH
  water uptake: 0.15%
[3]; 25° C./60% RH/1 week
  Purity/initial purity: 100.0%
  Form change: No
[3]; 40° C./75% RH/1 week
  Purity/initial purity: 99.9%
  Form change: No
[3]; 80° C./1 day, 25° C./60% RH/1 week, 40° C./75% RH/1 week
  solid state stability (overall, in words): good solid state stability
[3]; 80° C./1 day
  Purity/initial purity: 99.8%
  Form change: No
[4]; 2-MeTHF
  solubility: > 40000 µg/mL
[4]; ACN
  solubility: 4800 to 9500 µg/mL (≈ 8.37 to 16.6 mM)
[4]; Acetone
  solubility: > 42000 µg/mL
[4]; CPME
  solubility: 11500 to 23000 µg/mL (≈ 20.1 to 40.1 mM)
[4]; CPME/n-heptane (2:1)
  solubility: 2300 to 4600 µg/mL (≈ 4.01 to 8.02 mM)
[4]; EtOAc
  solubility: 10000 to 20000 µg/mL (≈ 17.4 to 34.9 mM)
[4]; IPAc
  solubility: 3800 to 6300 µg/mL (≈ 6.63 to 11 mM)
[4]; MIBK
  solubility: 10000 to 20000 µg/mL (≈ 17.4 to 34.9 mM)
[4]; MIBK/n-heptane (2:1)
  solubility: 4200 to 7000 µg/mL (≈ 7.32 to 12.2 mM)
[4]; MeOH
  solubility: 10500 to 21000 µg/mL (≈ 18.3 to 36.6 mM)
[4]; MeOH/H2O (9:1)
  solubility: 5300 to 10500 µg/mL (≈ 9.24 to 18.3 mM)
[4]; THF
  solubility: > 40000 µg/mL
[4]; THF/n-heptane (2:1)
  solubility: > 38000 µg/mL
